{
  "source": "patent US12329457B2",
  "about": "“Hyperspectral imaging for early detection of Alzheimer's disease” (REGENTS OF THE UNIVERSITY OF MINNESOTA, priority 2011, dated 2025)",
  "key": {"Aβ^1-42 aggregation": {"target": "T1, Aβ^1-42 aggregation (Homo sapiens, UniProt P05067)", "T1 construct": "Aβ1-42, FITC-Aβ1-42 and FITC-scrambled-Aβ1-42 were purchased from American Peptide Company; purchased American Peptide Company (Sunnyvale, CA, USA); host or cells: synthetic peptide added to SH-SY5Y cell cultures", "T1 sequence (P05067 672-713)": "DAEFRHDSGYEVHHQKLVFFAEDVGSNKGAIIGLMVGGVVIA", "assay": "HSI spectral signature inhibitor screening in Aβ1-42-treated SH-SY5Y cells", "format": "cell-based", "settings": "cells co-incubated with inhibitor and Aβ^1-42; rank guanidine, then guanosine, then urea", "experimental": "(§1) Cell Culture and Cellular Uptake. The human neuroblastoma cell line, SH-SY-5Y, used in the present study was obtained from American Type Culture Collection (Manassas, VA). The cells were maintained in MEM:F12 (1:1) medium supplemented with 10% FBS, 100 units/mL penicillin and 100 units/mL streptomycin and 1% NEAA (non-essential amino acid). Cells were grown at 37° C. in a humidified atmosphere with 5% CO2/95% air. FITC-Aβ1-42, and FITC-scrambled-Aβ1-42, were added to SHSY5Y cultures for 24 h. For time-dependence experiments, 250 nM FITC-Aβ1-42 was added to SHSY5Y cells, plated in 4-well Lab-Tek chamber slides (Nunc) and images as well as spectral scans (Cytoviva) were acquired at varying times (0-5 days) after addition of the labeled-Aβ1-42. For dose-dependence experiments, FITC-Aβ1-42 was added at varying concentrations (0-1000 nM) and imaged 24 h thereafter. In some experiments, SH-SY-5Y cells were incubated with FITC-Aβ1-42 for 48 h in the presence and absence of inhibitors or promoters of β-amyloid peptide.\nCytoViva hyperspectral imaging System After each treatment, slides were examined utilizing a CytoViva microscope and hyperspectral imaging system (CytoViva-Hyperspectral Imaging System (HSI), Auburn, AL; see the Cytoviva Hyperspectral Imaging System Manual) mounted on an Olympus BX-41 optical microscope. This system employs a darkfield-based illuminator that focuses a highly collimated light at oblique angles on the sample to obtain images with improved contrast and signal-to-noise ratio. […]\n(§2) The images were captured at 40× magnification using ENVI software, which is followed by extraction of spectral curves as described in the next section. The camera captured spectral responses from 400-1000 nm with a maximum readout time of 12 frames per second. […]\n(§3) Acquisition of Spectral Scans from Hyperspectral Image The CytoViva Hyperspectral image analysis software powered by ENVI contains features to aid in the quantification and identification of materials by spectral data analysis. […]"}, "Aβ^1-42 aggregates": {"target": "T2, Aβ^1-42 aggregates (Homo sapiens, UniProt P05067)", "T2 construct": "Aβ1-42, FITC-Aβ1-42 and FITC-scrambled-Aβ1-42 were purchased from American Peptide Company; purchased American Peptide Company (Sunnyvale, CA, USA); host or cells: synthetic peptide added to SH-SY5Y cell cultures", "T2 sequence (P05067 672-713)": "as above", "assay": "HSI with Spectral Angle Mapper (SAM) mapping and counting of intracellular amyloid aggregates", "format": "cell-based", "settings": "HSI imaging coupled with SAM", "experimental": "Cell Culture and Cellular Uptake. The human neuroblastoma cell line, SH-SY-5Y, used in the present study was obtained from American Type Culture Collection (Manassas, VA). The cells were maintained in MEM:F12 (1:1) medium supplemented with 10% FBS, 100 units/mL penicillin and 100 units/mL streptomycin and 1% NEAA (non-essential amino acid). Cells were grown at 37° C. in a humidified atmosphere with 5% CO2/95% air. FITC-Aβ1-42, and FITC-scrambled-Aβ1-42, were added to SHSY5Y cultures for 24 h. […]\nas §2\nSpectral Angle Mapping Classification Algorithm Among supervised classification methods, a SAM classification algorithm was selected due to its better performance than other classification algorithms for detection of β-amyloid aggregates in unknown samples. […] The spectral angle parameter value as α=0·1 or 0·2 was used for a SAM classifier where α is defined as the angle between testing spectrum vector a, and reference spectrum vector b and is calculated using the following equation: (Also, see FIG. 14, and Siddiqi et al., Cancer, 114(1), 13-21 (2008)."}, "APP/PS1 mice [1]": {"tested_on": "APP/PS1 mice", "assay": "Retinal HSI spectra to follow treatment in APP/PS1 mice", "format": "in vivo, mouse", "experimental": "(b) Isolation and analysis of retina tissue. Eyes were enucleated from wild type and Alzheimer's mice at the desired age. For whole-mount retinas, eyes were fixed in […] of freshly prepared 4% PFA-PBS at room temperature for 45 minutes. This was followed by washing with ice-cold PBS solution (2 mL) at least five times. The anterior eye portion, cornea, was dissected out under surgical microscope. The iris was then removed followed by the sclera, lens and hyaloid vessels. The isolated retinas were then washed with ice-cold PBS and divided into four quadrants by making four radial incisions. The whole-mounts were prepared by transferring the dissected retinas onto a microscope slide and coverslipped with hardset Vectashield mounting medium with the nuclear stain DAPI. The whole-mount retina slides were scanned with Cytoviva microscope and spectral signatures were collected from wavelengths in the 400-1000 nm range as described before.\n(§4) Hyperspectral Imaging to follow treatment success in Alzheimer's mice Alzheimer's and wild type mice were treated with a candidate drug, ψ-GSH, three times a week for 12 weeks starting at the age of three to four months. (see More et al., (2012) Restoration of Glyoxalase Enzyme Activity Precludes Cognitive Dysfunction in a Mouse Model of Alzheimer's Disease. ACS Chem. Neurosci., DOI: 10.1021/cn3001679) The study was divided in four groups (10 mice/group). 1. […]"}, "APP/PS1 mice [2]": {"tested_on": "APP/PS1 mice", "assay": "Morris Water maze memory test in APP/PS1 mice", "format": "in vivo, mouse"}, "APP/PS1 mice [3]": {"tested_on": "APP/PS1 mice", "assay": "Immunohistochemistry of brain tissue for Aβ load and plaques", "format": "in vivo, mouse", "experimental": "(a) Isolation and analysis of brain tissue. Brains were removed from wild type and Alzheimer's mice and post fixed in Zamboni's fixative (4% paraformaldehyde and 15% picric acid in 0.25 M sodium phosphate, pH 7.5) for 48 h before being cryopreserved in a 30% (wt/vol) sucrose/0.1 sodium phosphate-buffered saline solution. Frozen sections (10 μm) in OCT were cut on a sliding microtome, brought to room temperature and were coverslipped with hardset Vectashield mounting medium with the nuclear stain DAPI (catalogue #H-1500; Vector Laboratories, Burlingame, CA). The whole-mount brain slides were scanned with Cytoviva microscope and spectral signatures were collected from wavelengths in the 400-1000 nm range as described.\n(c) Immunohistochemistry of mouse brain and retina samples. For immunofluorescence studies, brain section slides and retina sample slides were pre-incubated for 1 hour in 5% normal goat serum (NGS) in 1×PBST (1×PBS containing 0.3% Triton X-100) at room temperature. A primary antibody against β-amyloid peptide ((Cell signaling, Cat. #2454) was employed then at a dilution of 1:200 in 1% NGS in 1×PBST. After an overnight incubation at 4° C., the slides were rinsed thrice for 10 min with 1×PBST and then incubated for 2 h in goat anti-rabbit IgG conjugated to Cy3 diluted to 1:1000 in 1% NGS in 1× PBST. The sections were rinsed in PBST thrice for 10 min and in PBS for 5 min. Samples were then dehydrated in ethanol, cleared with methyl salicylate, mounted in DEPEX (Electron Microscopy Science, Poole, UK) and staining of β-amyloid aggregates and plaques was visualized with Cytoviva microscope.\nas §4"}, "SH-SY5Y cells": {"tested_on": "SH-SY5Y cells", "assay": "HSI spectral signature of cells exposed to Aβ1-42", "format": "cell-based, human", "experimental": "as §1, with “In some experiments, SH-SY-5Y cells were incubated with FITC-Aβ1-42 for 48 h in the presence and absence of inhibitors or promoters of β-amyloid peptide.” left out\nas §2, §3"}},
  "data": [
    {"molecule": "NC(N)=O", "note": "[urea]", "values": [
      {"measurement": "attenuation of amyloid-induced HSI spectral change", "setting": "Aβ^1-42 aggregation", "value": "attenuation of amyloid-induced HSI spectral change"}
    ]},
    {"molecule": "[Zn+2]", "note": "[Zn^2+]", "values": [
      {"measurement": "number of intracellular amyloid aggregates compared to cells treated with Aβ^1-42 alone", "setting": "Aβ^1-42 aggregates", "value": 280, "unit": "%"}
    ]},
    {"molecule": "N=C(N)N", "note": "[guanidine, Guanidine]", "values": [
      {"measurement": "number of intracellular amyloid aggregates compared to cells treated with Aβ^1-42 alone", "setting": "Aβ^1-42 aggregates", "value": 62, "unit": "%"},
      {"measurement": "attenuation of amyloid-induced HSI spectral change", "setting": "Aβ^1-42 aggregation", "value": "greatest attenuation in HSI spectral change"}
    ]},
    {"molecule": "N[C@@H](CNC(=O)N[C@@H](CS)C(=O)NCC(=O)O)C(=O)O", "note": "[ψ-GSH]", "values": [
      {"measurement": "retinal HSI spectra", "setting": "APP/PS1 mice [1]; APP/PS1 mice treated orally", "value": "did not exhibit any differences from those of transgenic mice"},
      {"measurement": "retinal HSI spectra", "setting": "APP/PS1 mice [1]; APP/PS1 mice, ψ-GSH i.p. 12 weeks, after 2 months of treatment onward", "value": "tended toward those from normal mice"},
      {"measurement": "spatial memory development and escape latencies relative to the saline-treated group", "setting": "APP/PS1 mice [2]; APP/PS1 mice treated orally", "value": "did not reach statistical significance"},
      {"measurement": "escape latency", "setting": "APP/PS1 mice [2]; day 3, ψ-GSH treated mice (WT saline 17.29±2.13 s)", "value": "17.91 ± 4.65", "unit": "s"},
      {"measurement": "escape latency", "setting": "APP/PS1 mice [2]; day 4, ψ-GSH treated mice (WT saline 12.42±2.18 s)", "value": "14.64 ± 2.61", "unit": "s"},
      {"measurement": "learned behavior during the first week of testing", "setting": "APP/PS1 mice [2]; i.p.", "value": "significant learned behavior inculcation"},
      {"measurement": "time in the target quadrant, probe trial", "setting": "APP/PS1 mice [2]; i.p., untreated APP-PS1 16.39±3.39%, non-transgenic vehicle 36.67±5.30%", "value": "38.43±3.73", "unit": "%"},
      {"measurement": "time in the target quadrant, probe trial", "setting": "APP/PS1 mice [2]; orally treated APP/PS1 mice", "value": "21.76±5.36", "unit": "%"},
      {"measurement": "brain Aβ load", "setting": "APP/PS1 mice [3]; i.p., versus untreated APP/PS1 mice", "value": "significantly lower Aβ load"},
      {"measurement": "Aβ plaques in brain relative to controls", "setting": "APP/PS1 mice [3]; orally treated APP/PS1 mice", "value": "modest decrease in Aβ plaques"},
      {"measurement": "number and sizes of Aβ plaques in brain", "setting": "APP/PS1 mice [3]; ψ-GSH treated group (i.p.)", "value": "drastically reduced"}
    ]},
    {"molecule": "Nc1nc2c(ncn2[C@@H]2O[C@H](CO)[C@@H](O)[C@H]2O)c(=O)[nH]1", "note": "[guanosine]", "values": [
      {"measurement": "attenuation of amyloid-induced HSI spectral change", "setting": "Aβ^1-42 aggregation", "value": "attenuation of amyloid-induced HSI spectral change"}
    ]},
    {"molecule": "Aβ^1-42: β-amyloid peptide purchased from American Peptide Company; FITC-labelled form used for cell uptake", "values": [
      {"measurement": "time at which transmitted light reaches its nadir", "setting": "SH-SY5Y cells; 250 nM peptide, HSI spectra over time", "value": 48, "unit": "h"},
      {"measurement": "HSI spectral change in the 400-1000 nm wavelength region", "setting": "SH-SY5Y cells; SH-SY5Y cells, 0-1000 nM peptide", "value": "transmitted light shifts to lower values"}
    ]}
  ]
}
